Values after ≈ are worked out from the molar mass of the structure shown.
Tests used:
S. flexneri 2457 NR-517 [1] = test: Single-point antibacterial screen; format: cell-based, Shigella flexneri
Hemolysis assay = format: cell-based, rabbit; details: rabbit, rabbit erythrocytes (2% w/w)
[2] = tested on: E. coli S30 Extract System (prokaryotic translation); test: Cell-free in vitro translation assay, prokaryotic system; format: biochemical; details: 1.25 µM–2.4 nM
E. coli ATCC 25922 [3] = test: Single-point antibacterial screen
E. faecalis ATCC 29212 = test: Single-point antibacterial screen
K. pneumoniae NR-151410 = test: Single-point antibacterial screen
P. mirabilis HM-752 [4] = test: Single-point antibacterial screen
MRSA ATCC 33591 [5] = test: Single-point antibacterial screen
MRSA A960649 NR-45914 [6] = test: Single-point antibacterial screen
A. baumannii ATCC 19606 = test: Single-point antibacterial screen
C. freundii 4747 CFAA [7] = test: Single-point antibacterial screen
E. cloacae ATCC 13047 [8] = test: Single-point antibacterial screen
[9] = tested on: L. monocytogenes ATCC 19115; test: Single-point antibacterial screen
P. aeruginosa ATCC 27853 = test: Single-point antibacterial screen
[10] = tested on: S. epidermidis ATCC 12384; test: Single-point antibacterial screen
S. marcescens ATCC 13880 [11] = test: Single-point antibacterial screen
S. flexneri 2457 NR-517 [12] = test: MIC by double-dilution method; format: cell-based, Shigella flexneri
rabbit erythrocytes = test: Hemolysis assay; format: cell-based; details: 100 µM
[13] = tested on: rabbit reticulocyte lysate (eukaryotic translation); test: Cell-free in vitro translation assay, eukaryotic system; format: biochemical; details: 4.2 µM to 5 nM
E. coli ATCC 25922 [14] = test: MIC by double-dilution method
P. mirabilis HM-752 [15] = test: MIC by double-dilution method
MRSA ATCC 33591 [16] = test: MIC by double-dilution method; details: MRSA 33591
MRSA A960649 NR-45914 [17] = test: MIC by double-dilution method
C. freundii 4747 CFAA [18] = test: MIC by double-dilution method
E. cloacae ATCC 13047 [19] = test: MIC by double-dilution method
[20] = tested on: L. monocytogenes ATCC 19115; test: MIC by double-dilution method
[21] = tested on: S. epidermidis ATCC 12384; test: MIC by double-dilution method
S. marcescens ATCC 13880 [22] = test: MIC by double-dilution method
[23] = tested on: E. coli A-site (RNA, rRNA) GGCGUCACACCUUCGGGUGAAGUCGCC; test: fluorescent displacement assay; details: 50 mM Na+; F–NEO displaced (0.1 µM 1:1 complex), 10 mM HEPES, 0.4 mM EDTA, pH 7
[24] = tested on: human cytosolic A-site (RNA, rRNA) GGCGUCGCUCCUUCGGGAAAAGUCGCC; test: fluorescent displacement assay; details: 50 mM Na+; F–NEO displaced (0.1 µM 1:1 complex), 10 mM HEPES, 0.4 mM EDTA, pH 7
[25] = tested on: mitochondrial A-site (RNA, rRNA) GGCGUCACCCCUUCGGGACAAGUCGCC; test: fluorescent displacement assay; details: 50 mM Na+; F–NEO displaced (0.1 µM 1:1 complex), 10 mM HEPES, 0.4 mM EDTA, pH 7
E. coli A-site = details: concentration at which F–NEO emission is 50% of maximum
human cytosolic A-site = details: F–NEO displacement
mitochondrial A-site = details: F–NEO displacement

With `NCc1ccc2c(c1)C(=O)c1ccccc1C2=O` [AMA] the inhibition at 6.3 µM (S. flexneri 2457 NR-517 [1]; Shigella flexneri, 2457NR517, read-out: Inhibition of bacterial growth) was 9%, the hemolysis at 1 h, 100 µM (Hemolysis assay) was 10 ± 4.6% and the “Inhibition of prokaryotic translation (in words)” value [2] was “did not inhibit in vitro translation”. For the same compound, the inhibition at 6.3 µM (E. coli ATCC 25922 [3]; Escherichia coli, ATCC25922, read-out: Inhibition of bacterial growth) was 2%, the inhibition at 6.3 µM (E. faecalis ATCC 29212; Enterococcus faecalis, ATCC29212, read-out: Inhibition of bacterial growth) was 27% and the inhibition at 6.3 µM (K. pneumoniae NR-151410; Klebsiella pneumoniae, NR151410, read-out: Inhibition of bacterial growth) was 0%. The inhibition at 6.3 µM (P. mirabilis HM-752 [4]; Proteus mirabilis, HM752, read-out: Inhibition of bacterial growth) was 19%, the inhibition at 6.3 µM (MRSA ATCC 33591 [5]; Staphylococcus aureus, ATCC33591|MRSA, read-out: Inhibition of bacterial growth) was 0% and the inhibition at 6.3 µM (MRSA A960649 NR-45914 [6]; Staphylococcus aureus, MRSA, read-out: Inhibition of bacterial growth) was 0%. For the same compound, the inhibition at 6.3 µM (A. baumannii ATCC 19606; Acinetobacter baumannii, ATCC19606, read-out: Inhibition of bacterial growth) was 0%, the inhibition at 6.3 µM (C. freundii 4747 CFAA [7]; Citrobacter freundii, 4747CFAA, read-out: Inhibition of bacterial growth) was 4% and the inhibition at 6.3 µM (E. cloacae ATCC 13047 [8]; Enterobacter cloacae, ATCC13047, read-out: Inhibition of bacterial growth) was 0%. It also gave an inhibition at 6.3 µM ([9]; Listeria monocytogenes, ATCC19115, 48 h, read-out: Inhibition of bacterial growth) of 37%, an inhibition at 6.3 µM (P. aeruginosa ATCC 27853; Pseudomonas aeruginosa, ATCC27853, read-out: Inhibition of bacterial growth) of 5% and an inhibition at 6.3 µM ([10]; Staphylococcus epidermidis, ATCC12384, read-out: Inhibition of bacterial growth) of 0%. For the same compound, the inhibition at 6.3 µM (S. marcescens ATCC 13880 [11]; Serratia marcescens, ATCC13880, read-out: Inhibition of bacterial growth) was 0%.

In the case of `NC[C@@H]1O[C@H](O[C@H]2[C@@H](O)[C@H](O[C@@H]3[C@@H](O)[C@H](N)C[C@H](N)[C@H]3O[C@H]3O[C@H](CN)[C@@H](O)[C@H](O)[C@H]3N)O[C@@H]2CO)[C@H](N)[C@@H](O)[C@@H]1O` [NEO, neomycin], the “Inhibition of bacterial growth” value (S. flexneri 2457 NR-517 [1]; S. flexneri, 6.3 µM) is reported as 100%, the MIC (S. flexneri 2457 NR-517 [12]) is reported as 6.3 µM (≈ 3.87 µg/mL) and the “% hemolysis” value (rabbit erythrocytes) is reported as 7.0 ± 0.4%. The “Inhibition of eukaryotic translation” value [13] was “inhibition of translation is not observed”, the MIC (E. coli ATCC 25922 [14]) was 1.56 µM (≈ 0.959 µg/mL) and the MIC (P. mirabilis HM-752 [15]) was 6.3 µM (≈ 3.87 µg/mL). The MIC (MRSA ATCC 33591 [16]) was 400 µM (≈ 246 µg/mL), the MIC (MRSA A960649 NR-45914 [17]) was 400 µM (≈ 246 µg/mL) and the MIC (C. freundii 4747 CFAA [18]) was 0.78 µM (≈ 0.479 µg/mL). It also gave an MIC (E. cloacae ATCC 13047 [19]) of 3.25 µM (≈ 2 µg/mL), an MIC [20] of 1.6 µM (≈ 0.983 µg/mL) and an MIC [21] of 1.6 µM (≈ 0.983 µg/mL). The MIC (S. marcescens ATCC 13880 [22]) was 3.2 µM (≈ 1.97 µg/mL), the “Inhibition of bacterial growth” value (E. coli ATCC 25922 [3]; E. coli, 6.3 µM) was 100% and the “Inhibition of bacterial growth” value (E. faecalis ATCC 29212; E. faecalis, 6.3 µM) was 39%. For the same compound, the “Inhibition of bacterial growth” value (K. pneumoniae NR-151410; K. pneumoniae, 6.3 µM) was 0%, the “Inhibition of bacterial growth” value (P. mirabilis HM-752 [4]; P. mirabilis, 6.3 µM) was 96% and the “Inhibition of bacterial growth” value (MRSA ATCC 33591 [5]; MRSA 33591, 6.3 µM) was 0%. The “Inhibition of bacterial growth” value (MRSA A960649 NR-45914 [6]; MRSA A960649, 6.3 µM) was 0%, the “Inhibition of bacterial growth” value (A. baumannii ATCC 19606; A. baumannii, 6.3 µM) was 91% and the “Inhibition of bacterial growth” value (C. freundii 4747 CFAA [7]; C. freundii, 6.3 µM) was 97%. The “Inhibition of bacterial growth” value (E. cloacae ATCC 13047 [8]; E. cloacae, 6.3 µM) was 100%, the “Inhibition of bacterial growth” value ([9]; L. monocytogenes, 6.3 µM, 48 h incubation) was 100% and the “Inhibition of bacterial growth” value (P. aeruginosa ATCC 27853; P. aeruginosa, 6.3 µM) was 11%. The “Inhibition of bacterial growth” value ([10]; S. epidermidis, 6.3 µM) was 95%, the “Inhibition of bacterial growth” value (S. marcescens ATCC 13880 [11]; S. marcescens, 6.3 µM) was 100% and the IC50 [23] was 87.3 ± 5.9 nM. The IC50 [24] was 76.5 ± 13.2 nM, the IC50 [25] was 87.1 ± 8.3 nM and the IC50 (E. coli A-site) was 87.3 ± 5.9 nM. The IC50 (human cytosolic A-site) was 76.5 ± 13.2 nM and the IC50 (mitochondrial A-site) was 87.1 ± 8.3 nM.

In the case of Triton X-100, the “% hemolysis” value (rabbit erythrocytes) is reported as 100.0%.
